Publication PMC7156458, “Synthetic biology based construction of biological activity-related library of fungal decalin-containing diterpenoid pyrones” (Nature Communications, 2020)

Target: Aβ42 (Homo sapiens, UniProt P05067)
Assay: Th-T (thioflavin-T) assay of Aβ42 aggregation
Assay type: biochemical
Conditions: for Th-T assay plate reading, mean of three wells (Supplementary Fig. 47): source data, Ab alone and No Ab as controls

Chain of Aβ42 (P05067 672-713): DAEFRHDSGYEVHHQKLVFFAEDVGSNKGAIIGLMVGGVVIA

C=C1CCC2C(C)(CCC=C(C)C)C(=O)CCC2(C)C1Cc1c(O)c(C)c(C)oc1=O (stereo not shown) [Compound 8]
Th-T fluorescence, mean of three wells (Aβ42 aggregation time course, reading M118): 2.194
Th-T fluorescence, mean of three wells (Aβ42 aggregation time course, reading M119): 2.214
Th-T fluorescence, mean of three wells (Aβ42 aggregation time course, reading M120): 2.225
Th-T fluorescence, mean of three wells (Aβ42 aggregation time course, reading M121): 2.184
Th-T fluorescence, mean of three wells (Aβ42 aggregation time course, reading M122): 2.1853
Th-T fluorescence, mean of three wells (Aβ42 aggregation time course, reading M123): 2.186
Th-T fluorescence, mean of three wells (Aβ42 aggregation time course, reading M124): 2.207
Th-T fluorescence, mean of three wells (Aβ42 aggregation time course, reading M125): 2.241
Th-T fluorescence, mean of three wells (Aβ42 aggregation time course, reading M126): 2.218
Th-T fluorescence, mean of three wells (Aβ42 aggregation time course, reading M127): 2.187
Th-T fluorescence, mean of three wells (Aβ42 aggregation time course, reading M128): 2.217
Th-T fluorescence, mean of three wells (Aβ42 aggregation time course, reading M129): 2.196
Th-T fluorescence, mean of three wells (Aβ42 aggregation time course, reading M130): 2.222
Th-T fluorescence, mean of three wells (Aβ42 aggregation time course, reading M131): 2.189
Th-T fluorescence, mean of three wells (Aβ42 aggregation time course, reading M132): 2.211
Th-T fluorescence, mean of three wells (Aβ42 aggregation time course, reading M133): 2.1957
Th-T fluorescence, mean of three wells (Aβ42 aggregation time course, reading M134): 2.2077
Th-T fluorescence, mean of three wells (Aβ42 aggregation time course, reading M135): 2.191
Th-T fluorescence, mean of three wells (Aβ42 aggregation time course, reading M136): 2.198
Th-T fluorescence, mean of three wells (Supplementary Fig. 47, reading M138): 2.179
Th-T fluorescence, mean of three wells (Supplementary Fig. 47, reading M139): 2.196
Th-T fluorescence, mean of three wells (Supplementary Fig. 47, reading M140): 2.2093
Th-T fluorescence, mean of three wells (Supplementary Fig. 47, reading M141): 2.191
Th-T fluorescence, mean of three wells (Supplementary Fig. 47, reading M142): 2.182
Th-T fluorescence, mean of three wells (Supplementary Fig. 47, reading M143): 2.202
Th-T fluorescence, mean of three wells (Supplementary Fig. 47, reading M144): 2.22
Th-T fluorescence, mean of three wells (Supplementary Fig. 47, reading M145): 2.173
Th-T fluorescence, mean of three wells (Supplementary Fig. 47 source data, measurement M38 of time course): 2.163
Th-T fluorescence, mean of three wells (Supplementary Fig. 47 source data, measurement M39 of time course): 2.1439
Th-T fluorescence, mean of three wells (Supplementary Fig. 47 source data, measurement M40 of time course): 2.183
Th-T fluorescence, mean of three wells (Supplementary Fig. 47 source data, measurement M41 of time course): 2.185
Th-T fluorescence, mean of three wells (Supplementary Fig. 47 source data, measurement M42 of time course): 2.198
Th-T fluorescence, mean of three wells (Supplementary Fig. 47 source data, measurement M43 of time course): 2.197
Th-T fluorescence, mean of three wells (Supplementary Fig. 47 source data, measurement M44 of time course): 2.1886
Th-T fluorescence, mean of three wells (Supplementary Fig. 47 source data, measurement M45 of time course): 2.191
Th-T fluorescence, mean of three wells (Supplementary Fig. 47 source data, measurement M46 of time course): 2.181
Th-T fluorescence, mean of three wells (Supplementary Fig. 47 source data, measurement M47 of time course): 2.191
Th-T fluorescence, mean of three wells (Supplementary Fig. 47 source data, measurement M48 of time course): 2.202
Th-T fluorescence, mean of three wells (Supplementary Fig. 47 source data, measurement M49 of time course): 2.2088
Th-T fluorescence, mean of three wells (Supplementary Fig. 47 source data, measurement M50 of time course): 2.229
Th-T fluorescence, mean of three wells (Supplementary Fig. 47 source data, measurement M51 of time course): 2.215
Th-T fluorescence, mean of three wells (Supplementary Fig. 47 source data, measurement M52 of time course): 2.214
Th-T fluorescence, mean of three wells (Supplementary Fig. 47 source data, measurement M53 of time course): 2.236
Th-T fluorescence, mean of three wells (Supplementary Fig. 47 source data, measurement M54 of time course): 2.223
Th-T fluorescence, mean of three wells (Supplementary Fig. 47 source data, measurement M55 of time course): 2.205
Th-T fluorescence, mean of three wells (Supplementary Fig. 47 source data, measurement M56 of time course): 2.204
Th-T assay plate reading, mean of three wells (Supplementary Fig. 47) (measurement M2): 0.2095
Th-T assay plate reading, mean of three wells (Supplementary Fig. 47) (measurement M3): 0.2324
Th-T assay plate reading, mean of three wells (Supplementary Fig. 47) (measurement M4): 0.2683
Th-T assay plate reading, mean of three wells (Supplementary Fig. 47) (measurement M5): 0.2913
Th-T assay plate reading, mean of three wells (Supplementary Fig. 47) (measurement M6): 0.3294
Th-T assay plate reading, mean of three wells (Supplementary Fig. 47) (measurement M7): 0.3614
Th-T assay plate reading, mean of three wells (Supplementary Fig. 47) (measurement M8): 0.4027
Th-T assay plate reading, mean of three wells (Supplementary Fig. 47) (measurement M9): 0.444
Th-T assay plate reading, mean of three wells (Supplementary Fig. 47) (measurement M10): 0.4702
Th-T assay plate reading, mean of three wells (Supplementary Fig. 47) (measurement M11): 0.5005
Th-T assay plate reading, mean of three wells (Supplementary Fig. 47) (measurement M12): 0.5205
Th-T assay plate reading, mean of three wells (Supplementary Fig. 47) (measurement M13): 0.553
Th-T assay plate reading, mean of three wells (Supplementary Fig. 47) (measurement M14): 0.605
Th-T assay plate reading, mean of three wells (Supplementary Fig. 47) (measurement M15): 0.733
Th-T assay plate reading, mean of three wells (Supplementary Fig. 47) (measurement M16): 0.9658
Th-T fluorescence, mean of three wells (reading M18, Supplementary Fig. 47 source data): 1.528
Th-T fluorescence, mean of three wells (reading M19, Supplementary Fig. 47 source data): 1.697
Th-T fluorescence, mean of three wells (reading M20, Supplementary Fig. 47 source data): 1.804
Th-T fluorescence, mean of three wells (reading M21, Supplementary Fig. 47 source data): 1.844
Th-T fluorescence, mean of three wells (reading M22, Supplementary Fig. 47 source data): 1.86
Th-T fluorescence, mean of three wells (reading M23, Supplementary Fig. 47 source data): 1.891
Th-T fluorescence, mean of three wells (reading M24, Supplementary Fig. 47 source data): 1.925
Th-T fluorescence, mean of three wells (reading M25, Supplementary Fig. 47 source data): 1.959
Th-T fluorescence, mean of three wells (reading M26, Supplementary Fig. 47 source data): 2.003
Th-T fluorescence, mean of three wells (reading M27, Supplementary Fig. 47 source data): 2.003
Th-T fluorescence, mean of three wells (reading M28, Supplementary Fig. 47 source data): 2.0134
Th-T fluorescence, mean of three wells (reading M29, Supplementary Fig. 47 source data): 2.048
Th-T fluorescence, mean of three wells (reading M30, Supplementary Fig. 47 source data): 2.063
Th-T fluorescence, mean of three wells (reading M31, Supplementary Fig. 47 source data): 2.093
Th-T fluorescence, mean of three wells (reading M32, Supplementary Fig. 47 source data): 2.109
Th-T fluorescence, mean of three wells (reading M33, Supplementary Fig. 47 source data): 2.135
Th-T fluorescence, mean of three wells (reading M34, Supplementary Fig. 47 source data): 2.108
Th-T fluorescence, mean of three wells (reading M35, Supplementary Fig. 47 source data): 2.139
Th-T fluorescence, mean of three wells (reading M36, Supplementary Fig. 47 source data): 2.159
Th-T fluorescence, mean of three wells (time course, reading M58): 2.216
Th-T fluorescence, mean of three wells (time course, reading M59): 2.2236
Th-T fluorescence, mean of three wells (time course, reading M60): 2.219
Th-T fluorescence, mean of three wells (time course, reading M61): 2.226
Th-T fluorescence, mean of three wells (time course, reading M62): 2.227
Th-T fluorescence, mean of three wells (time course, reading M63): 2.25
Th-T fluorescence, mean of three wells (time course, reading M64): 2.223
Th-T fluorescence, mean of three wells (time course, reading M65): 2.24
Th-T fluorescence, mean of three wells (time course, reading M66): 2.247
Th-T fluorescence, mean of three wells (time course, reading M67): 2.214
Th-T fluorescence, mean of three wells (time course, reading M68): 2.201
Th-T fluorescence, mean of three wells (time course, reading M69): 2.2304
Th-T fluorescence, mean of three wells (time course, reading M70): 2.212
Th-T fluorescence, mean of three wells (time course, reading M71): 2.214
Th-T fluorescence, mean of three wells (time course, reading M72): 2.213
Th-T fluorescence, mean of three wells (time course, reading M73): 2.224
Th-T fluorescence, mean of three wells (time-course reading M98, Supplementary Fig. 47 source data): 2.211
Th-T fluorescence, mean of three wells (time-course reading M99, Supplementary Fig. 47 source data): 2.236
Th-T fluorescence, mean of three wells (time-course reading M100, Supplementary Fig. 47 source data): 2.235
Th-T fluorescence, mean of three wells (time-course reading M101, Supplementary Fig. 47 source data): 2.216
Th-T fluorescence, mean of three wells (time-course reading M102, Supplementary Fig. 47 source data): 2.236
Th-T fluorescence, mean of three wells (time-course reading M103, Supplementary Fig. 47 source data): 2.209
Th-T fluorescence, mean of three wells (time-course reading M104, Supplementary Fig. 47 source data): 2.206
Th-T fluorescence, mean of three wells (time-course reading M105, Supplementary Fig. 47 source data): 2.201
Th-T fluorescence, mean of three wells (time-course reading M106, Supplementary Fig. 47 source data): 2.237
Th-T fluorescence, mean of three wells (time-course reading M107, Supplementary Fig. 47 source data): 2.2129
Th-T fluorescence, mean of three wells (time-course reading M108, Supplementary Fig. 47 source data): 2.1995
Th-T fluorescence, mean of three wells (time-course reading M109, Supplementary Fig. 47 source data): 2.203
Th-T fluorescence, mean of three wells (time-course reading M110, Supplementary Fig. 47 source data): 2.217
Th-T fluorescence, mean of three wells (time-course reading M111, Supplementary Fig. 47 source data): 2.201
Th-T fluorescence, mean of three wells (time-course reading M112, Supplementary Fig. 47 source data): 2.214
Th-T fluorescence, mean of three wells (time-course reading M113, Supplementary Fig. 47 source data): 2.2232
Th-T fluorescence, mean of three wells (time-course reading M114, Supplementary Fig. 47 source data): 2.196
Th-T fluorescence, mean of three wells (time-course reading M115, Supplementary Fig. 47 source data): 2.1937
Th-T fluorescence, mean of three wells (time-course reading M116, Supplementary Fig. 47 source data): 2.237
